Results: patent US10993917B2, “Nanocomplex” (AGENCY FOR SCIENCE, TECHNOLOGY AND RESEARCH, priority 2016, dated 2021)

Experiments:
[1] = Biodistribution study in SKOV-3 tumor-bearing mice; format: in vivo, athymic NCR nude mice; details: intravenous, 2 mg Pt kg^−1, 4 hours post-injection
Experimental: All animal experiments were performed according to the protocols approved by the IACUC at the Biological Resource Centre, Singapore. Female athymic NCR nude mice (CrTac:Ncr-Foxn1^nu, 5-6 weeks old) were inoculated subcutaneously with 1×10^7 SKOV-3 cells suspended in 100 μL of PBS and 100 μL of Matrigel (BD Bioscience, of the United States of America) in the right flank. […] At predetermined time points, blood and organs were collected (4 mice per time point). The collected plasma and organs were decomposed in 65% (v/v) nitric acid at 60° C. for 2 hours, and the platinum concentration was measured by ICP-MS.

[2] = test system: SKOV-3 human ovarian cancer xenograft; assay: Antitumor efficacy study in a subcutaneous xenograft model; format: in vivo, NCR mice; details: 1 mg Pt kg^−1 i.v. on days 0, 7 and 14
Experimental: Female NCR mice bearing a subcutaneous SKOV-3 human ovarian cancer xenograft (120-150 mm^3) were randomly allocated to different treatments (10 mice per group). […] An isotonic dextrose solution (5% w/v) was used as a control. The tumor volume (mm^3) was calculated from the following formula: volume=(length×width^2)/2. In addition, a change in the body weight in the course of treatment was monitored as a measure of systemic toxicity.

[3] = Drug release study by dialysis in PBS pH 7.4 (physiological stability); format: physicochemical; details: 10 mM PBS pH 7.4, 37° C.
Experimental: The dialysis tube was immersed in total 30 mL of 10 mM PBS (pH 7.4). The dialysis tube was then incubated at 37° C. on an orbital shaker at 50 rpm. […] The dialysis tube was then immersed in total 30 mL of 100 mM phosphate buffer (pH 6) at 37° C. At predetermined time points, the amount of cisplatin released in the medium was determined by ICP-MS as described above. […] This rapid drug leakage was caused by the dissociation of HA/cisplatin complexes via the replacement of the carboxylate ligand of Pt(II) with the chloride ion in PBS.

[4] = Blood chemistry analysis 38 days after first treatment; format: in vivo, athymic NCR mice; details: 38-days endpoint, 1 mg Pt kg^−1 i.v. days 0, 7, 14
Source text: The athymic NCR mice that received different treatments were sacrificed to collect blood, tumor, and organs 38 days after the first treatment. For blood chemistry analysis, blood samples were collected in heparinized tubes and then examined using the Vetscan VS2 blood chemistry analyzer (Abaxis Inc., of California of the United States of America). The levels of alkaline phosphatase (ALP), alanine aminotransferase (ALT) and other serum markers were examined. The excised tumors and organs were fixed with neutral buffered formalin, embedded in paraffin blocks, and then sectioned for hematoxylin and eosin (H&E) staining.

N.N.[Cl][Pt][Cl] [free cisplatin, cisplatin]
cisplatin dose delivered into the tumor mass [1]: 1.53±0.48 % ID/g | platinum accumulation in the liver [1]: 1.31±0.25 % ID/g | tumor growth [2]: slightly delayed the tumor growth | mean tumor volume ([2]; day 38): 299.7±117.7 mm^3 | time to complete release from the dialysis tube [3]: ≤ 6 h | ALP level in blood [4]: elevated | ALT level in blood [4]: elevated
